Ki data for 27 molecules are collected here from patent US7378435B2, “Aryl-isoxazole-4-carbonyl-indole-carboxylic acid amide derivatives” (Hoffmann-La Roche Inc., priority 2005, dated 2008).

In the assay the target is T1, GABA A receptor α5β3γ2 (Homo sapiens, UniProt P18507+P31644).
T1 construct: expressed in transfected cells; host or cells: HEK293 (transiently transfected for the human receptors)
The assay is described as follows: [3H]flumazenil competition binding, human GABA A α5β3γ2 receptors expressed in HEK293 cells. The procedure: The affinity of compounds at GABA A receptor subtypes was measured by competition for [3H]flumazenil (85 Ci/mmol; Roche) binding to HEK293 cells expressing rat (stably transfected) or human (transiently transfected) receptors of composition α1β3γ2, α2β3γ2, α3β3γ2 and α5β3γ2.
Cell pellets were suspended in Krebs-tris buffer (4.8 mM KCl, 1.2 mM CaCl2, 1.2 mM MgCl2, 120 mM NaCl, 15 mM Tris; pH 7.5; binding assay buffer), homogenized by polytron for ca. 20 sec on ice and centrifuged for 60 min at 4° C. (50000 g; Sorvall, rotor: SM24=20000 rpm). The cell pellets were resuspended in Krebs-tris buffer and homogenized by polytron for ca. 15 sec on ice. Protein was measured (Bradford method, Bio-Rad) and aliquots of 1 mL were prepared and stored at −80° C.
Radioligand binding assays were carried out in a volume of […] (96-well plates) which contained […] of cell membranes, [3H]flumazenil at a concentration of 1 nM for α1, α2, α3 subunits and 0.5 nM for α5 subunits and the test compound in the range of […]. Nonspecific binding was defined by 10^−5 M diazepam and typically represented less than 5% of the total binding. Assays were incubated to equilibrium for 1 hour at 4° C. and harvested onto GF/C uni-filters (Packard) by filtration using a Packard harvester and washing with ice-cold wash buffer (50 mM Tris; pH 7.5). After drying, filter-retained radioactivity was detected by liquid scintillation counting. Ki values were calculated using Excel-Fit (Microsoft) and are the means of two determinations.

The mark [1] stands for this setting: Table 1, human α5, [3H]flumazenil, mean of two determinations, read-out: Ki h.
The mark [2] stands for this setting: human α5β3γ2, 0.5 nM [3H]flumazenil, mean of two determinations, read-out: Ki[μM] hα5.

Read-outs that look alike come from different tables or passages of the source.

On to `Cc1onc(-c2ccc(F)cc2)c1C(=O)c1c[nH]c2cc(C(=O)NCCCN3CCOCC3)ccc12` [Example 17, 3-[3-(4-Fluoro-phenyl)-5-methyl-isoxazole-4-carbonyl]-1H-indole-6-carboxylicacid (3-morpholin-4-yl-propyl)-amide], for which the Ki runs as follows: under setting [1], 0.0043 µM; under setting [2], 0.0043 µM. Regarding `Cc1onc(-c2ccc(F)cc2)c1C(=O)c1c[nH]c2cc(C(=O)NCc3ccccn3)ccc12` [Example 13, 3-[3-(4-Fluoro-phenyl)-5-methyl-isoxazole-4-carbonyl]-1H-indole-6-carboxylicacid (pyridin-2-ylmethyl)-amide], the inhibitory constant (Ki) by setting is: under setting [1], 0.00565 µM; under setting [2], 0.00565 µM. Regarding `CC(C)c1onc(-c2cccc(F)c2)c1C(=O)c1c[nH]c2cc(C(=O)NC3CCCC3)ccc12` [Example 40, 3-[3-(3-Fluoro-phenyl)-5-isopropyl-isoxazole-4-carbonyl]-1H-indole-6-carboxylicacidcyclopentylamide], the Ki under setting [1] stood at 0.0447 µM.

In the case of `C#CCNC(=O)c1ccc2c(C(=O)c3c(-c4cccc(F)c4)noc3C(C)C)c[nH]c2c1` [Example 38, 3-[3-(3-Fluoro-phenyl)-5-isopropyl-isoxazole-4-carbonyl]-1H-indole-6-carboxylicacid prop-2-ynylamide], the Ki under setting [1] was 0.0315 µM. `Cc1onc(-c2cccc(F)c2)c1C(=O)c1cn(C)c2cc(C(=O)NC3CCOCC3)ccc12` [Example 45, 3-[3-(3-Fluoro-phenyl)-5-methyl-isoxazole-4-carbonyl]-1-methyl-1H-indole-6-carboxylic acid(tetrahydro-pyrann-4-yl)-amide] yielded a Ki of 0.049 µM.

In the case of `Cc1onc(-c2cccc(F)c2)c1C(=O)c1cn(-c2ccccc2)c2cc(C(=O)NC3CCOCC3)ccc12` [Example 50, 3-[3-(3-Fluoro-phenyl)-5-methyl-isoxazole-4-carbonyl]-1-phenyl-1H-indole-6-carboxylic acid(tetrahydro-pyran-4-yl)-amide], the inhibition constant (Ki) under setting [1] was 0.0098 µM and the Ki under setting [2] was determined as 0.0098 µM. On to `Cc1onc(-c2cccc(F)c2)c1C(=O)c1c[nH]c2cc(C(=O)NC3CCCC3)ccc12` [Example 33, 3-[3-(3-Fluoro-phenyl)-5-methyl-isoxazole-4-carbonyl]-1H-indole-6-carboxylicacidcyclopentylamide], for which the Ki under setting [1] was 0.0953 µM. Same read-out and setting: next, `C#CCN(C)C(=O)c1ccc2c(C(=O)c3c(-c4ccc(F)cc4)noc3C)c[nH]c2c1` [Example 19, 3-[3-(4-Fluoro-phenyl)-5-methyl-isoxazole-4-carbonyl]-1H-indole-6-carboxylicacid methyl-prop-2-ynyl-amide]: 0.0606 µM. Turning to `Cc1onc(-c2ccccc2)c1C(=O)c1c[nH]c2cc(C(=O)NC3CC3)ccc12` [Example 8, 3-(5-Methyl-3-phenyl-isoxazole-4-carbonyl)-1H-indole-6-carboxylicacidcyclopropylamide], the Ki was determined as 0.003 µM under setting [1] and 0.003 µM under setting [2]. Turning to `C#CCNC(=O)c1ccc2c(C(=O)c3c(-c4cccc(F)c4)noc3C)c[nH]c2c1` [Example 31, 3-[3-(3-Fluoro-phenyl)-5-methyl-isoxazole-4-carbonyl]-1H-indole-6-carboxylicacid prop-2-ynylamide], the Ki under setting [1] was 0.0319 µM. On the same count and under the same terms, next, `Cc1onc(-c2ccccc2)c1C(=O)c1c[nH]c2cc(C(=O)NC3CCCC3)ccc12` [Example 10, 3-(5-Methyl-3-phenyl-isoxazole-4-carbonyl)-1H-indole-6-carboxylicacidcyclopentylamide]: 0.0137 µM.

Take `Cc1onc(-c2cccc(F)c2)c1C(=O)c1cn(C)c2cc(C(=O)NCc3ccco3)ccc12` [Example 42, 3-[3-(3-Fluoro-phenyl)-5-methyl-isoxazole-4-carbonyl]-1-methyl-1H-indole-6-carboxylic acid(furan-2-ylmethyl)-amide]: the Ki came out at 0.0769 µM. With `Cc1onc(-c2ccccc2)c1C(=O)c1c[nH]c2cc(C(=O)NCCc3cnc[nH]3)ccc12` [Example 4, 3-(5-Methyl-3-phenyl-isoxazole-4-carbonyl)-1H-indol-6-carboxylicacid [2-(1H-imidazol-4-yl)-ethyl]-amide], the inhibitory constant (Ki) was 0.00265 µM under setting [1] and 0.00265 µM under setting [2].

`Cc1onc(-c2ccc(F)cc2)c1C(=O)c1c[nH]c2cc(C(=O)NC3CC3)ccc12` [Example 23, 3-[3-(4-Fluoro-phenyl)-5-methyl-isoxazole-4-carbonyl]-1H-indole-6-carboxylicacidcyclopropylamide]: the Ki came to 0.00305 µM under setting [1] and 0.00305 µM under setting [2]. In the case of `Cc1onc(-c2ccccc2)c1C(=O)c1c[nH]c2cc(C(=O)NCc3ccccn3)ccc12` [Example 5, 3-(5-Methyl-3-phenyl-isoxazole-4-carbonyl)-1H-indole-6-carboxylicacid (pyridin-2-ylmethyl)-amide], the Ki under setting [1] was 0.00395 µM and the Ki under setting [2] came out at 0.00395 µM. `Cc1onc(-c2cccc(F)c2)c1C(=O)c1c[nH]c2cc(C(=O)NC3CCC3)ccc12` [Example 34, 3-[3-(3-Fluoro-phenyl)-5-methyl-isoxazole-4-carbonyl]-1H-indole-6-carboxylicacidcyclobutylamide]: the inhibition constant (Ki) under setting [1] is 0.059 µM. `Cc1onc(-c2ccc(F)cc2)c1C(=O)c1c[nH]c2cc(C(=O)NCc3ccncc3)ccc12` [Example 16, 3-[3-(4-Fluoro-phenyl)-5-methyl-isoxazole-4-carbonyl]-1H-indole-6-carboxylicacid (pyridin-4-ylmethyl)-amide]: the Ki by setting is: under setting [1], 0.00365 µM; under setting [2], 0.00365 µM. Molecule `Cc1onc(-c2cccc(F)c2)c1C(=O)c1cn(C)c2cc(C(=O)NCCN3CCOCC3)ccc12` [Example 41, 3-[3-(3-Fluoro-phenyl)-5-methyl-isoxazole-4-carbonyl]-1-methyl-1H-indole-6-carboxylic acid(2-morpholin-4-yl-ethyl)-amide] returned a Ki of 0.0249 µM. Regarding `Cc1onc(-c2cccc(F)c2)c1C(=O)c1c[nH]c2cc(C(=O)NC3CCOCC3)ccc12` [Example 32, 3-[3-(3-Fluoro-phenyl)-5-methyl-isoxazole-4-carbonyl]-1H-indole-6-carboxylicacid (tetrahydro-pyran-4-yl)-amide], under setting [1], the Ki was found to be 0.0418 µM. On to `Cc1onc(-c2cccc(F)c2)c1C(=O)c1c[nH]c2cc(C(=O)NCc3ccco3)ccc12` [Example 29, 3-[3-(3-Fluoro-phenyl)-5-methyl-isoxazole-4-carbonyl]-1H-indole-6-carboxylicacid (furan-2-ylmethyl)-amide], for which the Ki under setting [1] is 0.0621 µM. Same read-out and setting: in the case of `Cc1onc(-c2cccc(F)c2)c1C(=O)c1c[nH]c2cc(C(=O)NCCN3CCOCC3)ccc12` [Example 28, 3-[3-(3-Fluoro-phenyl)-5-methyl-isoxazole-4-carbonyl]-1H-indole-6-carboxylicacid (2-morpholin-4-yl-ethyl)-amide] it was 0.0227 µM. In the case of `C#CCNC(=O)c1ccc2c(C(=O)c3c(-c4ccc(F)cc4)noc3C)c[nH]c2c1` [Example 20, 3-[3-(4-Fluoro-phenyl)-5-methyl-isoxazole-4-carbonyl]-1H-indole-6-carboxylicacid prop-2-ynylamide], the Ki under setting [1] came out at 0.00325 µM and the Ki under setting [2] turned out to be 0.00325 µM.

For the molecule `Cc1onc(-c2ccc(F)cc2)c1C(=O)c1c[nH]c2cc(C(=O)NCc3cccnc3)ccc12` [Example 24, 3-[3-(4-Fluoro-phenyl)-5-methyl-isoxazole-4-carbonyl]-1H-indole-6-carboxylicacid (pyridin-3-ylmethyl)-amide], the Ki was determined as 0.00225 µM under setting [1] and 0.00225 µM under setting [2]. Regarding `Cc1onc(-c2cccc(F)c2)c1C(=O)c1c[nH]c2cc(C(=O)NC3CC3)ccc12` [Example 35, 3-[3-(3-Fluoro-phenyl)-5-methyl-isoxazole-4-carbonyl]-1H-indole-6-carboxylicacidcyclopropylamide], the Ki under setting [1] was found to be 0.038 µM. On to `CC(C)c1onc(-c2cccc(F)c2)c1C(=O)c1c[nH]c2cc(C(=O)NC3CCOCC3)ccc12` [Example 39, 3-[3-(3-Fluoro-phenyl)-5-isopropyl-isoxazole-4-carbonyl]-1H-indole-6-carboxylicacid (tetrahydro-pyran-4-yl)-amide], for which the Ki under setting [1] was found to be 0.0386 µM. Consider `Cc1onc(-c2ccc(F)cc2)c1C(=O)c1c[nH]c2cc(C(=O)NCCc3cnc[nH]3)ccc12` [Example 12, 3-[3-(4-Fluoro-phenyl)-5-methyl-isoxazole-4-carbonyl]-1H-indole-6-carboxylicacid [2-(1H-imidazol-4-yl)-ethyl]-amide], for which the Ki was determined as 0.0026 µM under setting [1] and 0.0026 µM under setting [2]. As for `Cc1onc(-c2ccc(F)cc2)c1C(=O)c1c[nH]c2cc(C(=O)NCCN3CCOCC3)ccc12` [Example 14, 3-[3-(4-Fluoro-phenyl)-5-methyl-isoxazole-4-carbonyl]-1H-indole-6-carboxylicacid (2-morpholin-4-yl-ethyl)-amide], the Ki amounted to 0.00455 µM under setting [1] and 0.00455 µM under setting [2].

In general, Ki refers to a dissociation constant, usually derived from enzyme kinetics or from competition with a known ligand.
